In US4477664A, “Novel 1-(4-piperidiniobenzyl)-2,3-dioxopiperazine derivatives or acid addition salts thereof” (Toyama Chemical Co., Ltd., priority 1979, dated 1984):
≈ marks a conversion by molar mass, not a printed value.

What was measured:
HeLa S3 cells = experiment: MIC value against HeLa S3 cells (microplate method); type: cell-based; conditions: Homo sapiens, 96 h, 2×10^4 cells/ml, 4 days, Giemsa staining
Text: (§1) a. MIC value against HeLa S3 cells and Ehrlich cells (microplate method) Number of cells: 2×10^4 cells/ml Culture medium: Eagle's MEM+20% calf embryonic serum Culture time: 4 days Judgement: Giemsa staining

[1] = tested on: Ehrlich ascites carcinoma cells; experiment: Effect on Ehrlich carcinoma (i): intraperitoneal inoculation, mean survival days; type: in vivo, ICR-strain mice; conditions: Mus musculus, ip, 168 h, once a day for 7 days, read-out: T/C (mean survival days)
Protocol: (i) Ehrlich ascites carcinoma cells (1×10^6 cells/head) were inoculated intraperitoneally into ICR-strain mice (female, 6 to 7 weeks old, each group consisting of 5 or 4 mice), and after 24 hours, the […] The effect thereof was judged from the mean survival days.
The test drugs were used in the form of a solution or suspension in a saline solution or a 0.3% carboxymethyl cellulose-containing saline solution. [formula]

Ehrlich cells = experiment: MIC value against Ehrlich cells (microplate method); type: cell-based; conditions: 96 h, 2×10^4 cells/ml, 4 days, Giemsa staining
Text: as §1

Acute toxicity = conditions: mouse, in vivo, ip; intraperitoneal, once, male mice, observed for 7 days
Text: The test drugs were used in the form of a solution or suspension in a saline solution or a 0.3% carboxymethyl cellulose-containing saline solution.

L-1210 ascites cells = experiment: Effect on L-1210 leukemia (i): intraperitoneal inoculation, mean survival days; type: in vivo, BDF1-strain mice; conditions: 50 mg/kg
Protocol: (i) L-1210 ascites cells (1×10^5 cells/head) were inoculated intraperitoneally into BDF1 -strain mice (female, 6 weeks old, each group consisting of 4 mice), and after 24 hours, the intraperitoneal administration of a test drug was started and effected once a day. The effect thereof was judged from the mean survival days. The test drug was used in the form of a solution or suspension in a saline solution or a 0.3% carboxymethyl cellulose-containing saline solution.
T/C was calculated in the same manner as in above b (i).

[2] = tested on: Ehrlich ascites carcinoma cells; experiment: Effect on Ehrlich carcinoma (ii): subcutaneous inoculation at inguinal region, mean tumor weight; type: in vivo, ICR-strain mice; conditions: intraperitoneally, once a day for 5 days, judgement day 13
Protocol: (ii) Ehrlich ascites carcinoma cells (4×10^6 cells/head) were inoculated subcutaneously at the inguinal region into ICR-strain mice (female, 6 to 7 weeks old, each group consisting of 5 or 4 mice), and after 24 hours, the intraperitaneal or oral administration of a test drug was started and effected once a day for 5 days. The effect thereof was judged from the mean weight of tumor on the 13th or 15th day, respectively.
The test drug was used in the form of a solution or suspension in a saline solution or a 0.3% carboxymethyl cellulose-containing saline solution. [formula]

[3] = tested on: Ehrlich ascites carcinoma cells; experiment: Effect on Ehrlich carcinoma (iii): subcutaneous inoculation at right armpit, mean tumor weight; type: in vivo, ICR-strain mice; conditions: 100 mg/kg, orally, once a day for 7 days, 14th day
Protocol: (iii) Ehrlich ascites carcinoma cells (4×10^6 cells/head) were inoculated subcutaneously at the right armpit region into ICR-strain mice (female, 7 weeks old, each group consisting of 6 or 7 mice), and after 24 hours, the oral administration or subcutaneous administration at the dorsal region of a test drug was started, and effected once a day for 7 days. The effect thereof was judged from the mean weight of the tumor on the 14th day. The test drug was used in the form of a solution or suspension in a saline solution or a 0.3% carboxymethyl cellulose-containing saline solution.
T/C was calculated in the same manner as in above (ii).

| SMILES | MIC (HeLa S3 cells) [µg/mL] | response vs control in vivo at 100 mg/kg [1] [%] | MIC (Ehrlich cells) [µg/mL] | LD50 at 168 h (Acute toxicity) [mg/kg] | further results |
| --- | --- | --- | --- | --- | --- |
| CCCCCCN1CCN(Cc2ccc(N(CC)CC)cc2Cl)C(=O)C1=O [Compound 30] | 3.13 (≈ 7.94 µM) | 152 | 3.13 (≈ 7.94 µM) | – | – |
| CCCCCCN1CCN(Cc2ccc(NC(C)C)cc2)C(=O)C1=O [Compound 33] | 0.78 (≈ 2.26 µM) | – | 0.78 (≈ 2.26 µM) | – | – |
| CCCCCCN1CCN(Cc2ccc(N3CCCCC3)cc2)C(=O)C1=O [Compound 31] | 3.13 (≈ 8.42 µM) | – | 3.13 (≈ 8.42 µM) | – | – |
| O=C1C(=O)N(Cc2ccc(Nc3ccncn3)cc2)CCN1Cc1ccccc1 [Compound 20] | 0.78 (≈ 2.01 µM) | – | 1.56 (≈ 4.03 µM) | > 500 | – |
| CC(c1ccccc1)N1CCN(Cc2ccc(Nc3ncccn3)cc2)C(=O)C1=O (centres unmarked) [Compound 18] | 3.13 (≈ 7.8 µM) | – | 6.25 (≈ 15.6 µM) | – | – |
| O=C1C(=O)N(Cc2ccc(Nc3ccccn3)cc2)CCN1Cc1ccc(Nc2ccccn2)cc1 [Compound 24] | 3.13 (≈ 6.54 µM) | – | 3.13 (≈ 6.54 µM) | – | – |
| CCCCCCN1CCN(Cc2ccc(Nc3cnccn3)cc2)C(=O)C1=O [Compound 21] | 1.56 (≈ 4.09 µM) | – | 1.56 (≈ 4.09 µM) | – | – |
| CC=CC=CCN1CCN(Cc2ccc(N(CC)CC)cc2)C(=O)C1=O [Compound 27] | 6.25 (≈ 17.6 µM) | – | 6.25 (≈ 17.6 µM) | – | – |
| O=C1C(=O)N(Cc2ccc(Nc3ncccn3)cc2)CCN1CCCc1ccccc1 [Compound 15] | 1.56 (≈ 3.75 µM) | – | 1.56 (≈ 3.75 µM) | > 500 | – |
| COC(=O)c1ccc(CN2CCN(Cc3ccc(Nc4ncccn4)cc3)C(=O)C2=O)cc1 [Compound 17] | 6.25 (≈ 14 µM) | – | 6.25 (≈ 14 µM) | – | – |
| CCCCCCN1CCN(Cc2ccc(N(CC)CC)c(C)c2)C(=O)C1=O [Compound 29] | 12.5 (≈ 33.5 µM) | 184 | 12.5 (≈ 33.5 µM) | – | – |
| Cc1cc(Nc2ccc(CN3CCN(Cc4ccccc4)C(=O)C3=O)cc2)nc(C)c1N [Compound 44] | 0.78 (≈ 1.82 µM) | – | 0.78 (≈ 1.82 µM) | > 200 | T/C (mean survival days) (L-1210 ascites cells; 3 administrations): 137% |
| CCN(CC)c1ccc(CN2CCN(CCN)C(=O)C2=O)cc1 [Compound 37] | 25 (≈ 78.5 µM) | – | 25 (≈ 78.5 µM) | – | T/C (mean tumor weight) ([2]; 25 mg/kg): 54%; T/C (mean tumor weight) ([2]; 50 mg/kg): 52%; T/C (mean tumor weight) ([2]; 100 mg/kg): 65% |
| O=C1C(=O)N(Cc2ccc(Nc3ccccn3)cc2)CCN1Cc1ccccc1 [Compound 2] | 0.39 to 0.78 (≈ 1.01 to 2.02 µM) | > 192 | 0.39 to 0.78 (≈ 1.01 to 2.02 µM) | > 200 | – |
| Cc1nc(Nc2ccc(CN3CCN(Cc4ccccc4)C(=O)C3=O)cc2)ccc1N [Compound 42] | < 0.05 | – | < 0.05 | > 200 | response vs control in vivo at 50 mg/kg ([1]; 50 mg/kg): 149%; T/C (mean tumor weight) [3]: 54%; T/C (mean survival days) (L-1210 ascites cells; 7 administrations): 148% |
| Cc1cc(Nc2ccc(CN3CCN(Cc4ccccc4)C(=O)C3=O)cc2)ncc1N [Compound 43] | < 0.05 | – | < 0.05 | > 200 | T/C (mean survival days) (L-1210 ascites cells; 7 administrations): 143% |
| O=C1C(=O)N(Cc2ccc(Nc3ncccn3)cc2)CCN1CCc1ccccc1 [Compound 14] | 0.39 (≈ 0.971 µM) | > 179 | 0.39 (≈ 0.971 µM) | > 500 | – |
| CC(c1ccc(Nc2ncccn2)cc1)N1CCN(Cc2ccccc2)C(=O)C1=O (centres unmarked) [Compound 22] | 3.13 to 6.25 (≈ 7.8 to 15.6 µM) | – | 6.25 (≈ 15.6 µM) | – | – |
| CCN(CC)c1ccc(CN2CCN(Cc3cnc(Cl)nc3Cl)C(=O)C2=O)cc1 [Compound 36] | 12.5 (≈ 28.6 µM) | 204 | 12.5 (≈ 28.6 µM) | – | response vs control in vivo at 40 mg/kg ([1]; 40 mg/kg): > 190% |
| O=C1C(=O)N(Cc2ccc(Nc3ncccn3)cc2)CCN1Cc1ccc(Nc2ncccn2)cc1 [Compound 23] | 6.25 (≈ 13 µM) | 159 | 6.25 (≈ 13 µM) | – | – |
